Measurements taken from paper PMC10070013, “Apigenin improves cytotoxicity of antiretroviral drugs against HTLV-1 infected cells through the modulation of AhR signaling” (Neuroimmune Pharmacology and Therapeutics, 2023).
pKd: −log10 of the molar value.

Legend:
[1] = biological target: T1, ATP binding cassette subfamily B member 1 (ABCB1/P-gp) (Homo sapiens, UniProt P08183); assay: Nano-ITC with recombinant protein (positive control protein)
T1 construct: Recombinant human ABCB1 (LS-G142372-20)

[2] = biological target: T2, aryl hydrocarbon receptor (AhR) (Homo sapiens, UniProt P35869); assay: Nano-ITC with recombinant protein; type: binding
T2 construct: Recombinant human AhR (LS-G13702-10)
T2 sequence (P35869 11-848): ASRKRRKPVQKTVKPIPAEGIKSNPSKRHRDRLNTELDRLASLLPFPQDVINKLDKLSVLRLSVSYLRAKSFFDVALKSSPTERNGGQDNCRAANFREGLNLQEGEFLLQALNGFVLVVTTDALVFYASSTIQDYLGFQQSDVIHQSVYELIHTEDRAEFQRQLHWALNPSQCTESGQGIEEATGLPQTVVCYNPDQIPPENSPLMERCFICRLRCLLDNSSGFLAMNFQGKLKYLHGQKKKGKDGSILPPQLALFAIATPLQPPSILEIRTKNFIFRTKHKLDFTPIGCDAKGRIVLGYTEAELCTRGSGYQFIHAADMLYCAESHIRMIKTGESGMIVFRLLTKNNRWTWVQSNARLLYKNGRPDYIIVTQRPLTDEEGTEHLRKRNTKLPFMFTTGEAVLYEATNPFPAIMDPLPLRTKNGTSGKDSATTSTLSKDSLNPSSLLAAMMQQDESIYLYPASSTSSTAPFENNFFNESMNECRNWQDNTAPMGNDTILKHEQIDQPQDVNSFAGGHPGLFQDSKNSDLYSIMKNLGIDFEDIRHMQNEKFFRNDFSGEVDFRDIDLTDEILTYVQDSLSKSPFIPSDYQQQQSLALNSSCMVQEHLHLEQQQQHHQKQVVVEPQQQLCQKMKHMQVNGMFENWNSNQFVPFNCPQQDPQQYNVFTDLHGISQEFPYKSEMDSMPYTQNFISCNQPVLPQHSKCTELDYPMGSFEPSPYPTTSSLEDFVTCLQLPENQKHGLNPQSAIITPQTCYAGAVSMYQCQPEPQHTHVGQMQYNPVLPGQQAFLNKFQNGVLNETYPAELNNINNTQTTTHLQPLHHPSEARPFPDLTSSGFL

T1 sequence (P08183 whole entry): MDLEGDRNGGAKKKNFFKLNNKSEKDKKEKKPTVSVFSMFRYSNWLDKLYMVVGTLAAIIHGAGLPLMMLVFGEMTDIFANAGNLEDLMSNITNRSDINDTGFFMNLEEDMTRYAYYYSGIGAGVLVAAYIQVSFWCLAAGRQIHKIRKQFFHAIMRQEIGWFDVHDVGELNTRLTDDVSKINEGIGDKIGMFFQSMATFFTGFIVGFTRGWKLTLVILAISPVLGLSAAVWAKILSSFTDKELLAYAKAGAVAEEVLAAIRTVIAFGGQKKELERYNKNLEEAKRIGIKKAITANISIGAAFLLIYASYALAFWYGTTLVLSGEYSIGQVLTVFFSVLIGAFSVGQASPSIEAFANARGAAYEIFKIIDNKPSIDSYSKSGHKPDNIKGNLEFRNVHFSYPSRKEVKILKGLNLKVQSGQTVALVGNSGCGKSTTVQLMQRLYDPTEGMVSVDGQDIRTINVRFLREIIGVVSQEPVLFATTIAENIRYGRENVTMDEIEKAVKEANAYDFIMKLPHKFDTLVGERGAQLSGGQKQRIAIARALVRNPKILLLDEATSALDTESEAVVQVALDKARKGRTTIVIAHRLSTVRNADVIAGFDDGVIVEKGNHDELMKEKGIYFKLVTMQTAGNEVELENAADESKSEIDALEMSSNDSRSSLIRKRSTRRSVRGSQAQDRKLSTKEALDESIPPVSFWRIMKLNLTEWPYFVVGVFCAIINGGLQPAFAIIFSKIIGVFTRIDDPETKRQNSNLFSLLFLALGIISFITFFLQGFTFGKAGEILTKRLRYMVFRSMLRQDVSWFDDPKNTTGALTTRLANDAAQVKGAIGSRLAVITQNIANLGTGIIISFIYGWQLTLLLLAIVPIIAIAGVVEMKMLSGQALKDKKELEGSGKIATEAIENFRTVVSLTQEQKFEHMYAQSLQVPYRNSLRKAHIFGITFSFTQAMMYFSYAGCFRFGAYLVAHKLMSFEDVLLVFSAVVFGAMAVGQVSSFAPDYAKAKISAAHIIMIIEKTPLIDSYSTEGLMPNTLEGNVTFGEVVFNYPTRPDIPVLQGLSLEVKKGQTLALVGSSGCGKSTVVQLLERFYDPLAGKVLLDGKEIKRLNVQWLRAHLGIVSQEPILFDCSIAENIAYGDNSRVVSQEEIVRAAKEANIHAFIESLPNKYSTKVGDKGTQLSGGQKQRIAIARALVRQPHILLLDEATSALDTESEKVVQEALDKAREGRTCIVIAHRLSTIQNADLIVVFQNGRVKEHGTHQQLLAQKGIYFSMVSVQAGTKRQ

Q: What does the source list for `O=c1cc(-c2ccc(O)cc2)oc2cc(O)cc(O)c12` [Apigenin]?
A: pKd [1]: 9.00; pKd [2]: 5.37
